Assay: Human HepG2 cell viability assay in 384 well format
Assay type: toxicity, cell-based
Parameters: dose 125 nL, time 70.5 hour; concentration not given beside the values
Details: HepG2 cells, read-out: Inhibition

SMILES | cytotoxicity at 70.5 h
CN(C)C1CCCN(C(=O)NCc2ccccc2-n2cccn2)C1 (stereo not drawn) | 10.5%
Cc1c(C(=O)N2CCCC(n3cccn3)C2)nnn1-c1ccccc1 (stereo not drawn) | -2.31%
Cc1ccc(CNC(=O)CN2CCCCC2Cn2cncn2)s1 (stereo not drawn) | -7.67%
CCc1noc(C(C)N2CCN(C)CC2)n1 (stereo not drawn) | -7.05%
Cc1cnn(C2CCCN(C(=O)Cc3ccc(C#N)cc3)C2)c1 (stereo not drawn) | -2.96%
Cc1cnn(CC2CCCN2CCCS(=O)(=O)N(C)C)c1 (stereo not drawn) | 2.72%
CN(Cc1ccc2c(c1)OCO2)C(=O)Cn1cccnc1=O | 17.3%
NC(=O)C1CCN(C(=O)NCc2ccccc2-n2cccn2)CC1 | -4.82%
CC(=O)NC1CCCN(C(=O)Nc2cccnc2-n2cccn2)C1 (stereo not drawn) | -6.08%
CN(C(=O)Cc1ccccc1Cl)C1CCN(c2ccccn2)CC1 | 2.75%
Cc1cnn(C2CCCN(C(=O)Cc3ccc4c(c3)CCO4)C2)c1 (stereo not drawn) | 13.9%
CN(C(=O)Cc1ccccc1F)C1CCN(c2ccccn2)CC1 | -3.14%
Cc1nn(-c2ccccc2)cc1C(=O)N1CCCC(n2ccnc2)C1 (stereo not drawn) | -0.753%
Cc1cc(C)n(CC2CCCN2C(=O)c2ccc3nnc(C)n3c2)n1 (stereo not drawn) | -0.407%
Cn1cnc2c1CCN(CCCS(=O)(=O)c1ccccc1)C2 | 24.3%
CCN1CCC(CNC(=O)Nc2cc(C)on2)C1 (stereo not drawn) | -4.44%
Cc1cc(C)cc(OCCN(C)C(=O)NC(C)c2nncn2C)c1 (stereo not drawn) | 17.7%
COc1ccc(N2CCN(C(=O)NC(C)c3nncn3C)CC2)cc1 (stereo not drawn) | -3.61%
CC(NC(=O)N1CCC(c2ccccc2)CC1)c1nncn1C (stereo not drawn) | -3.28%
CCOc1ncccc1CNC(=O)NCCNC(=O)c1ccco1 | -4.58%

SMILES | cytotoxicity at 70.5 h
Cc1cnn(CC2CN(CCc3cccs3)CCO2)c1 (stereo not drawn) | -2.69%
COc1cc(C(=O)N2CCCS2(=O)=O)ccc1OC(C)C | 21.8%
O=C(Cc1csc(-c2ccco2)n1)N1CCCC1Cn1cccn1 (stereo not drawn) | -7.55%
CN(Cc1cccs1)C(=O)CN1CCOC(Cn2cncn2)C1 (stereo not drawn) | 17.4%
Cc1nc(C(=O)N2CCCC2c2noc(C)n2)c[nH]1 (stereo not drawn) | -4.04%
Cn1cnc2c1CCN(CCS(=O)(=O)c1ccc(Cl)cc1)C2 | -5.54%
Cc1cc(CN(C)C(=O)c2ccc(OC(C)C)nc2)no1 | 20%
Cn1c(CN2CCCC(c3noc(C4CC4)n3)C2)cc(=O)n(C)c1=O (stereo not drawn) | -11.3%
Cc1cc(OCC(=O)N2CCCC2c2noc(C)n2)no1 (stereo not drawn) | -13.8%
CC(C)c1cc(NC(=O)CN2CCCC2c2noc(C(C)C)n2)on1 (stereo not drawn) | -12%
Cc1cccc(C(=O)NCCCN2CCc3ccccc3C2)c1C | -7.53%
Cn1ncc(NCc2cccc(F)c2)c(Cl)c1=O | -13.3%
CC(Cn1cccn1)NC(=O)NCCc1cccs1 (stereo not drawn) | -6.38%
Cc1ccccc1C(=O)NCCCN1CCc2ccccc2C1 | 19.4%
CNc1snc(C)c1C(=O)N1CCCC(n2cccn2)C1 (stereo not drawn) | -15%
CNc1snc(C)c1C(=O)N1CCCC(n2ccnc2)C1 (stereo not drawn) | -9.44%
Cc1cn2c(n1)CCC(NC(=O)c1cc[nH]n1)C2 (stereo not drawn) | -4.85%
Cc1ccc(-c2noc(CN3CCc4nn(C)c(=O)cc4C3)n2)cc1 | -4.24%
Cn1nc2c(cc1=O)CN(Cc1nc(-c3cccnc3)no1)CC2 | -3.78%
CC(C)c1nc(C2CCCN2Cc2cc(=O)n(C)c(=O)n2C)no1 (stereo not drawn) | -4.31%

SMILES | cytotoxicity at 70.5 h
Cc1cc(NC(=O)CN2CCCC2c2noc(C(C)C)n2)no1 (stereo not drawn) | 14.1%
Cc1cc(NC(=O)CN2CCCC2c2noc(C3CC3)n2)n(C)n1 (stereo not drawn) | -10.4%
COc1cccc(CN2CCCC(c3cc(C(N)=O)[nH]n3)C2)c1 (stereo not drawn) | -12.6%
Cn1nc2c(cc1=O)CN(Cc1nc(-c3ccco3)no1)CC2 | -7.45%
CNc1snc(C)c1C(=O)N1CCCC(n2cc(C)cn2)C1 (stereo not drawn) | -8.17%
COc1c(C2CCCN2Cc2noc(C)n2)c(C)nn1C (stereo not drawn) | 44.7%
CCN(CCC1CCN(C(=O)NCc2nncn2CC)CC1)CC1CC1 | 15.6%
Cc1nn(C)c(N(C)C)c1CNCc1ccc(Cn2cncn2)cc1 | 22.4%
c1ncn(CC2CCCN2Cc2cn3ccsc3n2)n1 (stereo not drawn) | -16.9%
COCCc1noc(CN2CCCCC2Cn2cc(C)cn2)n1 (stereo not drawn) | -11.7%
CCc1nc(CNCC2CCCN2c2cc(NC)ncn2)cs1 (stereo not drawn) | -4.75%
CC(C)c1nnc2n1CCN(Cc1csc(CC(=O)N(C)C)n1)C2 | 49.9%
CCc1noc(C(C)N2CCN(Cc3ncc(C(C)(C)C)o3)CC2)n1 (stereo not drawn) | 11.8%
Cc1cc(C(C)C(=O)N2CCCN(Cc3cscn3)CC2)c(C)o1 (stereo not drawn) | 18.7%
COC(C(=O)N1CCCN(Cc2cscn2)CC1)c1ccccc1 (stereo not drawn) | 12.8%
CCc1noc(C(C)N2CCN(Cc3noc(C)n3)CC2)n1 (stereo not drawn) | 26.6%
Cc1cc(C)n(CC2CN(Cc3nnsc3Cl)CCO2)n1 (stereo not drawn) | -13%
Cc1ccc(NC2CCN(C(=O)Cn3nc(C)cc3C)CC2)nn1 | -6.3%

— ChEMBL document CHEMBL3507680, “University of Dundee, Gates Library screen for HepG2 cell viability”
